Patent US5948816A, “4-substituted-2,7-dideoxy-7-fluoro-2,3-didehydro-sialic acid compounds” (priority 1996, dated 1999)
Structures can show the parent of a compound that is named as a salt.

Target: sialidase (Influenza A virus, UniProt P03468)
Assay: Influenza virus sialidase inhibition (free sialic acid released from α 2-3 sialyl-lactose, pH 5.2, 37° C., densitometry)
Format: biochemical, Influenza virus A/PR/8/34
Settings: for IC50: α 2-3 sialyl-lactose substrate, pH 5.2, 37° C., 10 minutes

Chain of sialidase (P03468 whole entry): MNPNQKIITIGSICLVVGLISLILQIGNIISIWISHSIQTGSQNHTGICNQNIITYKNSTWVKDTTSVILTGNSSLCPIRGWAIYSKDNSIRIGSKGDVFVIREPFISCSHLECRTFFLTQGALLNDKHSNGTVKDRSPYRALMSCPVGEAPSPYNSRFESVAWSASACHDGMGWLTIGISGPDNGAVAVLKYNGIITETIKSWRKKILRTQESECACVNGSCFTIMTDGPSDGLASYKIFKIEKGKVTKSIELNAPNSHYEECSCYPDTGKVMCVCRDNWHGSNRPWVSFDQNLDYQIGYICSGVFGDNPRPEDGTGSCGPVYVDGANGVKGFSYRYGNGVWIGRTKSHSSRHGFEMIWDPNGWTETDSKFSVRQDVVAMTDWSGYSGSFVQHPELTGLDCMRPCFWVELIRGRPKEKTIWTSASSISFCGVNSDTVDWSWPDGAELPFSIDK

SMILES	IC50 [µM]	sialidase inhibitory activity
CC(=O)N[C@H]1[C@H]([C@H](O)[C@H](O)CO)OC(C(=O)O)=C[C@@H]1N [4-Amino-2,3-didehydrosialic acid, 4-amino-2,3-didehydrosialic acid]	1.5	–
CC(=O)N[C@H]1[C@H]([C@H](F)[C@H](O)CO)OC(C(=O)O)=C[C@@H]1N [5-Acetamide-4-amino-2,6-anhydro-7-fluoro-3,4,5,7-tetradeoxy-D-glycero-D-galacto-non-2-enonic acid Sodium salt]	0.5	very potent
CC(=O)N[C@H]1[C@H]([C@H](F)[C@H](O)CO)OC(C(=O)O)=C[C@@H]1O [7-Fluoro-2,3-didehydrosialic acid]	2.9	–
